In US20250280816A1, “INSECT TRAP” (Scotts Canada Ltd., priority 2017, published 2025):

Columns and labels:
Format in all cases: in vivo, Cimex lectularius
[1] = tested on: bed bugs (C. lectularius); test: three-dish, dual-choice olfactometer bioassay; conditions: Exp. 23-37; nymphs; amounts in micrograms in parentheses of the bait
From the text: Bioassays were run in dual-choice olfactometers and in large Plexiglass arenas (FIG. 19). Dual-choice olfactometers consisted of two lateral Pyrex® glass Petri dishes, connected to a central dish (all dishes 3×9 cm inner diameter) via a Pyrex® glass tube (2.5 cm long×2 cm inner diameter). The dishes in this olfactometer mimic the natural still-air shelters in which bed bugs spend the day. Prior to the start of bioassays, a disc of paper toweling (9 cm diameter) was placed into each dish and a strip of paper toweling (2.4×0.6 cm) was inserted into the connecting glass tubing to provide traction for walking bed bugs. In addition, a piece of filter paper (2×3 cm; Whatman) was placed into each lateral dish and covered with a piece of cardboard (2×2 cm) as a refuge for bioassay insects.
Treatment and control stimuli were randomly assigned to each lateral dish. Olfactometers were enclosed in opaque plastic bins to prevent light from entering and affecting the insects' responses. For each replicate, a single 3rd, 4th, or 5th instar C. lectularius nymph was released into the central chamber of the olfactometer, which was then covered with a glass plate to prevent escape. The single bed bug in each olfactometer was then allowed to explore all chambers. Each insect was released into an olfactometer at the end of the 14-h photophase allowing it to explore the chambers during 10 h of darkness, and to come to rest in one of the shelters during 10 h of light. After this 20-h period, the insect's position within the olfactometer was recorded. Any insects not found in a lateral chamber were recorded as non-responders. All experimental replicates were run at 24±2° C. and 30-60% RH. Olfactometers were washed with Sparkleen detergent (Fisher Scientific Co, Pittsburgh, PA, USA), and were oven-dried (Precision, Winchester, VA, USA) between each bioassay.

bed bugs [2] = test: large Plexiglass arena bioassay with baited shelters; conditions: adult males
From the text: The large two-chamber Plexiglass arena (180 cm long×12 cm high×13 cm wide) was designed with a central divider (180 cm long×5.5 cm high) to accommodate two pieces of wood (162 cm long×3.8 cm wide×0.8 cm high), each piece for testing the response of a single bed bug to a pheromone-baited shelter or a control shelter (see insert in FIG. 19) which were randomly assigned to either end of the wood. […] For each replicate, a single bed bug was placed in the center of the wood piece just prior to the end of the 14-h photophase, and its position was scored the next morning after the onset of the photophase.
Experiments 68-75 also investigated the effect of the volatile pheromone components (VPCs) (E)-2-hexenal, (E)-2-octenal, dimethyl disulfide, dimethyl trisulfide and 2-hexanone, and the effect of the less-volatile pheromone component histamine (H), on attraction and arrestment of bed bugs. Treatment stimuli consisted of filter paper (4×2.2 cm) impregnated with H (2,000 μg) and covered with a piece of corrugated cardboard shelter (3×2.2 cm), and of VPCs formulated at a high dose (500 μg; Experiments 68-74) or a medium dose (50 μg; Exp. 75) in mineral oil (0.5 mL) and pipetted into the inverted lid of a 20-ml scintillation vial resting on top of the shelter (FIG. 19). Control stimuli were of identical design but the filter paper contained no H, and the mineral oil contained no VPCs.

bed bugs [3] = test: pheromone-baited shelter traps in a heavily infested residential apartment (Room 106); conditions: Exp. 76-79, 24-h periods; for Mean ± SE number insects in baited shelter: VPCs total 500 μg, histamine 2,000 μg, nymphal and adult bed bugs; for Mean (±SE) number insects in control shelter: unbaited control shelter paired with the baited shelter
From the text: To determine whether bed bugs responded to synthetic pheromone lures not only in large arena laboratory bioassays but also in infested premises (residential apartments), we placed pheromone-baited shelter traps (see FIG. 19) in apartments with known or suspected bed bug infestations. […] Based on 24-hour trapping results in multiple apartments, we selected a single, heavily infested apartment (hereafter referred to as Room 106) for further testing of synthetic bed bug pheromone lures.
Replicates (n=15-20) of each experiment consisted of paired shelters placed against a wall or furniture, with approximately 30-cm spacing between paired shelters and >1 m spacing between shelter pairs. For each shelter pair within each experiment, pheromone and control treatments were randomly assigned, and placement of replicates was alternated between the two experiments of Set 1 and Set 2. Because not more than 10 shelter pairs could be accommodated in Room 106 at any time, experimental data were collected over several consecutive 24-h periods. Every morning at 9:00, shelters were collected from Room 106 and immediately placed into separate labelled zipper lock bags which were then put on dry ice to kill the bed bugs that had entered a shelter. Bed bugs in each shelter were later counted in the laboratory under a microscope, noting their developmental stage (1st, 2nd, 3rd, or 4th instar, adult), sex (male, female), and evidence (or not) for blood feeding prior to entry into a shelter. Immediately following the removal of bed bug shelters from Room 106 each morning, new pre-prepared shelters were pheromone-baited (treatment) or not (control) and their position within shelter pairs randomly assigned (see above), again alternating placement of shelter pairs between Experiments 76 and 77 (Set 1) and between Experiments 78 and 79 (Set 2).

NCCc1c[nH]cn1 [H, histamine]
No. insects in bait chamber [1]: 35
No. insects in control chamber [1]: 10
No. insects not responding [1]: 3
No. insects in shelter 1 (bed bugs [2]; Exp. 68-71, 73, baited shelter 1 vs unbaited shelter 2, VPCs 500 μg, histamine 2,000 μg): 12
No. insects not responding (bed bugs [2]; Exp. 68-71, 73, baited shelter 1 vs unbaited shelter 2): 5
No. insects in shelter 2 (bed bugs [2]; Exp. 68-71, 73, unbaited shelter 2 paired with the baited shelter 1): 1
No. insects in shelter 2 (bed bugs [2]; Exp. 68-71, 73, unbaited shelter 2 paired with the baited shelter 1, listed as histamine): one
No. insects in shelter 2 (bed bugs [2]; Exp. 72, shelter 2 H (2,000 μg) vs shelter 1 VPC (500 μg)): 14
No. insects in shelter 2 (bed bugs [2]; Exp. 74, shelter 2 H (2,000 μg) vs shelter 1 VPC (500 μg) + H): 5
No. insects in shelter 2 (bed bugs [2]; Exp. 75, shelter 2 H (2,000 μg) vs shelter 1 VPC (50 μg) + H): 0
Mean ± SE number insects in baited shelter (bed bugs [3]): 6.06 ± 1.28
Mean ± SE number insects in baited shelter (bed bugs [3]; listed as histamine): 6.06
Mean (±SE) number insects in control shelter (bed bugs [3]): 4.53 ± 1.8
Mean (±SE) number insects in control shelter (bed bugs [3]; listed as histamine): 4.53
